This is an account of results in patent publication EP3436024B1, “3-BETA-METHOXY-PREG FOR USE IN THE TREATMENT OF TREATMENT RESISTANT DEPRESSION” (Mapreg, priority 2016, dated 2017).

Assay [1] concerns the target Serotoninergic 5-HT1A (Homo sapiens, UniProt P08908). The experiment in a line: CNS receptor binding assay, 5-HT1A. As to conditions: MAP4343 10 µM; [^3H] 8-OH-DPAT; Human recombinant (HEK-293 cells); read-out: % Inhibition of control specific binding. As to the method: (§1) MAP4343 has been screened for in vitro affinity to 80 different CNS neurotransmitters receptors using various validated binding assays.
(§2) Table 4. In vitro affinity of MAP4343 (10 µM) for CNS neurotransmitter receptors associated with side effects and/or abuse liability. Data are the average of two individual assays for each receptor and are expressed as % inhibition of the control specific binding of the reference compound. Results showing an inhibition higher than 50% are considered to represent significant effects of the test compound.

Assay [2] has as its target Serotoninergic Transporter (Homo sapiens, UniProt P31645). The assay is described as follows: CNS receptor binding assay, serotoninergic transporter. As to conditions: MAP4343 10 µM; [^3H] imipramine; Human recombinant (CHO cells); read-out: % Inhibition of control specific binding. How it is done:
as §1, §2

The test system of assay [3] is Wistar Kyoto (WKY) rats. The experiment in a line: Locomotor activity in the open-field arena, WKY rats. In kind it is in vivo, rat. As to conditions: acute, MAP4343 10 mg/kg s.c., fluoxetine 10 mg/kg i.p., ketamine 30 mg/kg i.p., 3 min, Fig. 5A. How it is done: After a 6-day period of acclimatization, all experimental groups received daily successive subcutaneous (250 µl per rat) and intraperitoneal (1 ml/kg) injections. WI rats received injection of vehicle (sesame oil + saline) while WKY rats were randomly assigned to […], as follow: KWY rats receiving only vehicle (sesame oil + saline) and WKY rats treated with MAP4343 (10 mg/kg, s.c.; rats received in parallel i.p. injections of saline), fluoxetine (10 mg/kg i.p., rats received in parallel s.c. injections of sesame oil) or ketamine (30 mg/kg, i.p.; rats received in parallel s.c. injections of sesame oil) (see Figure 3).
After, a 6-day period of acclimatization, the acute phase of treatment started for 4 days during behavioral tests were performed (Figure 3). All animals were injected 1h30 before the starting of behavioral test.
The animals were individually placed in the open field arena (OFA) (70 x 100 x 70 cm), with a central square (35 x 50 cm), located in a 50 lux illuminated room and videotaped during 3 min using a computerized system (VideoTrack V2.5, ViewPoint, Lyon, France).
OFA allows firstly the evaluation of total locomotor activity (LMA) thereby measuring the total distance travelled in the arena (in cm). Secondly, measurements of the activity in the center of the arena like (i) the number of entries in the center of arena and (ii) the total time spent in the center of arena (in sec) provide cues of anxiety-like behavior (Prut and Belzung, 2003). All these behavioral parameters were instantaneously measured automatically with the VideoTrack V2.5 software from the videos.

Assay [4] has as its target Serotoninergic 5-HT2B (Homo sapiens, UniProt P41595). The experiment in a line: CNS receptor binding assay, 5-HT2B. Conditions: MAP4343 10 µM; [^125I] (±) DOI; Human recombinant (CHO cells); read-out: % Inhibition of control specific binding. How it is done: as §1, §2
For assay [5], the system named is NMDA PCP site. The assay is described as follows: CNS receptor binding assay, NMDA PCP site. Conditions: MAP4343 10 µM; [^3H] TCP; rat cerebral cortex. How it is done: as §1, §2
The target of assay [6] is Oppioid µ (Homo sapiens, UniProt P35372). The experiment in a line: CNS receptor binding assay, opioid µ. As to conditions: MAP4343 10 µM; [^3H] DAMGO; Human recombinant (HEK-293 cells); read-out: % Inhibition of control specific binding. As to the method:
as §1, §2

Assay [7] addresses Cannabinoid CB1 (Homo sapiens, UniProt P21554). The assay is described as follows: CNS receptor binding assay, CB1. Conditions: MAP4343 10 µM; [^3H] CP 55940; Human recombinant (CHO cells); read-out: % Inhibition of control specific binding. How it is done:
as §1, §2

Assay [8] addresses Serotoninergic 5-HT1B (Rattus norvegicus, UniProt P28564). The assay is described as follows: CNS receptor binding assay, 5-HT1B. As to conditions: MAP4343 10 µM; [^125I] CYP + (-) propranolol; rat cerebral cortex; read-out: % Inhibition of control specific binding. How it is done: as §1, §2

The structures appear in SMILES notation.

Serotoninergic 5-HT2B, sequence (P41595 whole entry): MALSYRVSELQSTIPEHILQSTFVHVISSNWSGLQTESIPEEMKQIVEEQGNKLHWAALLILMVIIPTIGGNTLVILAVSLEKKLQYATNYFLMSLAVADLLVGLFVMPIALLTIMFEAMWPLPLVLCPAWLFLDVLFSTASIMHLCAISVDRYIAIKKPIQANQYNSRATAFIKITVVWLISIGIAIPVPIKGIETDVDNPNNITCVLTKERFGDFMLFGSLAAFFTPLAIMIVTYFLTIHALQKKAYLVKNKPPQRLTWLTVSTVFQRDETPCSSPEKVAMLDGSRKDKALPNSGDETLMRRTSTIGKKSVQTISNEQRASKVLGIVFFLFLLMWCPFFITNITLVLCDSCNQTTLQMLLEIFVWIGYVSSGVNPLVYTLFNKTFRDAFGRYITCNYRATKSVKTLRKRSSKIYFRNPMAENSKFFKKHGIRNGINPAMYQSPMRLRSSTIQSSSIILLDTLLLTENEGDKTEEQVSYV
Oppioid µ, sequence (P35372 whole entry): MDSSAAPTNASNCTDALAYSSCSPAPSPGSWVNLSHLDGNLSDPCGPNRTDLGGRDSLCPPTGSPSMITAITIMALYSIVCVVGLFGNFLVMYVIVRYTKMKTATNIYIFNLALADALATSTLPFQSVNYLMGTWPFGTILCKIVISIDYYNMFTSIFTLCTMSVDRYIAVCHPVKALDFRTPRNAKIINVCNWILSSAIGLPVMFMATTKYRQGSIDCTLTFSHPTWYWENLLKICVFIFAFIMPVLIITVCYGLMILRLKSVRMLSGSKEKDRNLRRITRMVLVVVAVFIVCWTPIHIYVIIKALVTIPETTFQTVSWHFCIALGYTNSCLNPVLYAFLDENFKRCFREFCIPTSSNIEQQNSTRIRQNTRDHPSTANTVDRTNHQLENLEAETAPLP
Serotoninergic 5-HT1B, sequence (P28564 whole entry): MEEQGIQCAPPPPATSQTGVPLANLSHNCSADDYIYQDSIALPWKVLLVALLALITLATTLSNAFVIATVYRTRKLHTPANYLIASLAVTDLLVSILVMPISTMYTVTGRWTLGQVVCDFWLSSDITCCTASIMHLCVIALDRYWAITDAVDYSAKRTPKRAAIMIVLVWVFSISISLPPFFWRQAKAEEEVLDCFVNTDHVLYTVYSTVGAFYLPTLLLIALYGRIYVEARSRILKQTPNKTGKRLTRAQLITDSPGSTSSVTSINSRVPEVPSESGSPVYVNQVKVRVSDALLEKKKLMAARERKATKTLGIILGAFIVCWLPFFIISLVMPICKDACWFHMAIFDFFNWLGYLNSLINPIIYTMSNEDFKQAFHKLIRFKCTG
Serotoninergic 5-HT1A, sequence (P08908 whole entry): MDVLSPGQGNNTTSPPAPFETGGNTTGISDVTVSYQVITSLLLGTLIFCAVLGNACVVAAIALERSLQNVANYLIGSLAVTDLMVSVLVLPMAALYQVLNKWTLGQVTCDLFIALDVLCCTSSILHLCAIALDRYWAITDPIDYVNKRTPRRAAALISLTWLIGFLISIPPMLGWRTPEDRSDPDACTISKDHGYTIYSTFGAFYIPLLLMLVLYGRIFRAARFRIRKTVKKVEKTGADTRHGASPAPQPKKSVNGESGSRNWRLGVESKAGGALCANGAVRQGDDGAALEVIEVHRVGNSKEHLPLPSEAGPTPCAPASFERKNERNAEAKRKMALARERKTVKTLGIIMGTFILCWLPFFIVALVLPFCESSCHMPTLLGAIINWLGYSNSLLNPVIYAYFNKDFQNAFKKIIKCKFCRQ
Cannabinoid CB1, sequence (P21554 whole entry): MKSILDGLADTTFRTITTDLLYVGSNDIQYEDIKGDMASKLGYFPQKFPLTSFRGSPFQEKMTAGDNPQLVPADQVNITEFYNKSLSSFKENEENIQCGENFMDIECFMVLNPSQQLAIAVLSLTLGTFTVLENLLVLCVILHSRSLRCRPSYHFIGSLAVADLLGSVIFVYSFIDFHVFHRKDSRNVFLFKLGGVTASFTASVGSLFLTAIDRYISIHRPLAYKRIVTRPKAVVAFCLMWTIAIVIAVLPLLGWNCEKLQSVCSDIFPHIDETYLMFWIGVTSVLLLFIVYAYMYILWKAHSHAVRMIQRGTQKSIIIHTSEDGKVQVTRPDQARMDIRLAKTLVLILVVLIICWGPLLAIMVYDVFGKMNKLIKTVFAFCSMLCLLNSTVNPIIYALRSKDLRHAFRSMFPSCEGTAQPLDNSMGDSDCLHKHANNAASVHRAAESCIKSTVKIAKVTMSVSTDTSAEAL
Serotoninergic Transporter, sequence (P31645 whole entry): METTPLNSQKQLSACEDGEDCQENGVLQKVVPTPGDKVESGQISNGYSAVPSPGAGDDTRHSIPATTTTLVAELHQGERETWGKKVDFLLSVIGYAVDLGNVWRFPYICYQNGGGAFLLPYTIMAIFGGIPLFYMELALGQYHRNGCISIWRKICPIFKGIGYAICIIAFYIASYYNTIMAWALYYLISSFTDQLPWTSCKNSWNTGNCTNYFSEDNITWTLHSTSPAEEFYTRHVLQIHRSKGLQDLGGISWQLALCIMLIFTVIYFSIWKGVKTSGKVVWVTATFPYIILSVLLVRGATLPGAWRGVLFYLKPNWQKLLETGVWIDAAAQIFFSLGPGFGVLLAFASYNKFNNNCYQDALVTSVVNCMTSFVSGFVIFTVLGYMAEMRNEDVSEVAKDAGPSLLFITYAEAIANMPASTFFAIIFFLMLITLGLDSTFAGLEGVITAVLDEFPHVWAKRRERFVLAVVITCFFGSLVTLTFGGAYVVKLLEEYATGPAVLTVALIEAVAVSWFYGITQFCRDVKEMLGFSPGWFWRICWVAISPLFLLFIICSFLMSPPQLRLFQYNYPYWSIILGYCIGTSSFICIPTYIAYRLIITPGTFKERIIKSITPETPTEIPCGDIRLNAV

In the case of `CO[C@H]1CC[C@@]2(C)C(=CC[C@H]3[C@@H]4CC[C@H](C(C)=O)[C@@]4(C)CC[C@@H]32)C1` (stereo in doubt) [MAP4343, 3β-methoxy-pregna-5-ene-20-one], the inhibition at 10 µM in assay [1] was 2%; in assay [2], 3%; in assay [4] it was -4%; in assay [6], 0%; in assay [7], 12%; in assay [8] it was 4%. Besides, the “locomotor activity (total distance travelled in the open-field arena), change as compared to WKY receiving vehicle” value in assay [3] was “did not modify significantly”. For the same compound, the “% Inhibition of control specific binding” value in assay [5] was -10%.

The inhibition is the change of the read-out against control, counted positive when it falls.
